Laboratory results taken from patent US8507463B2, “Nucleotide analogue prodrug and the preparation thereof” (Jiangsu Chia Tai Tianqing Pharmaceutical Co., Ltd., priority 2005, dated 2013).
Like-named read-outs stand apart in the source and are kept apart here.

How the values were obtained:
[1] = Light exposure test (4500±500 Lx); assay type: physicochemical; conditions: light 4500±500 Lx
Excerpt: Samples were evenly spread out and placed in open culture dishes and the thickness thereof was less than 5 mm, then distances were adjusted until the illumination intensity was 4500±500 Lx, samples were taken on the fifth and tenth day respectively for determination, compared with the result of day 0, results were listed in the table below: […]

[2] = Acceleration test (40° C., relative humidity 75%); assay type: physicochemical
Protocol: Samples were sealed with polyethylene plastic bags, placed in the thermostatic drying chamber at 40±2° C. with relative humidity of 75±5% for 3 months. Then the samples were taken at the end of the first, second and third month respectively for determination, compared with the result of day 0, results were listed in the table below: […]

[3] = Stability analysis, overall conclusion in words; assay type: physicochemical; conditions: from light, high temperature, high humidity and acceleration tests
[4] = assay type: physicochemical; conditions: for amount of solvent (ml), 0.1N HCl / amount of solvent (ml), 0.1N NaOH / amount of solvent (ml), anhydrous ethanol / amount of solvent (ml), methanol / amount of solvent (ml), water: to dissolve 1 g of sample
[5] = High humidity test (room temperature, relative humidity 75±5%); assay type: physicochemical; conditions: 25° C.
Protocol: Samples were evenly spread out and placed in open culture dishes, wherein the thickness thereof was less than 5 mm, put in a thermostatic drying chamber at room temperature (25° C.) with relative humidity of 75±5%. Then the samples were taken on the fifth and tenth day respectively for determination, compared with the result of day 0, results were listed in the table below

[6] = Acute toxicity test, median lethal dose (LD50); conditions: both sexes, mouse, in vivo, oral, mice, infused into the stomach, observed 14 days
Protocol: TD fumarate and TD crystalline form A were dissolved in 0.1M citric acid aqueous solution respectively, 140 healthy mice with 18˜22 g body-weight was selected, randomly divided into 14 groups, 10 per group, and the number of male and female mice were equal.
Following the preliminary test, TD fumarate and TD crystalline form A were administered to 7 different dosing groups by infusing into the stomach, observed for 14 days consecutively to investigate the toxic reaction and death cases of mice and then LD50 was calculated.

[7] = tested on: BEAGLE dogs; test: Long term toxicity test (kidney function); assay type: in vivo; conditions: 6 months
Protocol: BEAGLE dogs as animal models, Adefovir Dipivoxil as control sample, long term toxicity of TD crystalline form A was investigated, especially the effects of TD crystalline form A on kidney function was investigated.
30 BEAGLE dogs were randomly divided into 5 groups, 6 dogs per group. One group as blank control group, three groups as low dosing, medium dosing and high dosing group of TD crystalline form A respectively. The dosage of low dosing group was 5 mg/kg once per day, the dosage of medium dosing group was 15 mg/kg once per day and the dosage of high dosing group was 45 mg/kg once per day. The remaining group was Adefovir Dipivoxil control group, dosed at 40 mg/kg once per day.
Drugs mixed with salad oil were administered to the animals for 6 months consecutively, then observed for 21 consecutive days after drug withdrawal.

[8] = High temperature test (60° C.); assay type: physicochemical; conditions: sealed ampoules
Protocol: Samples were sealed in clean glass ampoules and put in 60° C. thermostatic drying chamber, then they were taken on the fifth and tenth day respectively for determination, compared with the result of day 0, results were listed in the table below:
Samples were sealed in clean glass ampoules and put in 60° C. thermostatic drying chamber, then they were taken on the fifth and tenth day respectively for determination, compared with the result of day 0, results were listed in the table below

[9] = tested on: Duck Hepatitis B Virus; test: Anti-viral (anti-HBV) test in vivo, DHBV-DNA level by PCR; set-up: species or system GaoYou pockmark ducks; conditions: ducks, once a day, day 0 level as base line of 100
Protocol: Two-month old pockmark ducks vertically infected with Duck Hepatitis B Virus were selected as animal models to conduct anti-HBV test in vivo, the efficacy was investigated. 80 GaoYou pockmark ducks were divided randomly into. 8 groups, 10 ducks per groups, three groups were given TD fumarate at the dosage of 5, 15, 45 mg/kg once a day respectively, other three groups were given Tenofovir Disoproxil Fumarate at the dosage of 5, 15, 45 mg/kg once a day respectively, other one group was given Adefovir Dipivoxil at the dosage of 15 mg/kg once a day and the remaining group was blank control group. All the groups were administered for 28 days, and blood samples were taken every 7 days to determine the inhibitory effect to the DHBV-DNA level by PCR, inhibition rate was listed in the following table.

[10] = human, cited from earlier work
[11] = Bioavailability: blood concentration-time from plasma radioactivity; assay type: in vivo; conditions: mice, intragastric 30 mg/kg
Protocol: 10 mice were randomly divided into 2 groups, 5 per group, intragastricly administered 3H-TD fumarate and Tenofovir Disoproxil Fumarate at 30 mg/kg with radio dose of 135 μCi/kg respectively. Plasm samples in different times were taken to measure the radioactivity, which was then converted into the plasma concentration.
Comparison of the blood concentration (ug/ml)-time of 3H-TD fumarate and Tenofovir Disoproxil Fumarate.

[12] = read-out: LD50, 95% confident limit
[13] = BEAGLE dogs, 40 mg/kg once per day

C[C@H](Cn1cnc2c(N)ncnc21)OCP(=O)(OCOC(=O)C(C)(C)C)OCOC(=O)C(C)(C)C [TD crystalline form A, 9-[2-(R)-[bis[pivaloyloxymethoxy]-phosphinylmethoxy]propyl]adenine]
content (%) ([1]; day 0): 98.7%
content (%) ([1]; day 5): 98.3%
content (%) ([1]; day 10): 98.5%
content (%) ([2]; end of month 1): 93.1%
content (%) ([2]; end of month 2): 90.5%
content (%) ([2]; end of month 3): 86.3%
content (%) ([2]; month 0): 99.7%
stability, overall conclusion in words [3]: good stabilities
solubility conclusion, 0.1N HCl [4]: soluble
solubility conclusion, 0.1N NaOH [4]: slightly
solubility conclusion, anhydrous ethanol [4]: freely soluble
solubility conclusion, methanol [4]: freely soluble
amount of solvent (ml), 0.1N HCl [4]: 33.5 mL
amount of solvent (ml), 0.1N NaOH [4]: 910 mL
amount of solvent (ml), anhydrous ethanol [4]: 5.0 mL
amount of solvent (ml), methanol [4]: 1.4 mL
amount of solvent (ml), water ([4]; water): 880 mL
solubility conclusion, water ([4]; water): soluble
content (%) ([5]; day 0): 99.7%
Weight gain after moisture absorption (%) ([5]; day 5): 4.3%
content (%) ([5]; day 5): 98.5%
Weight gain after moisture absorption (%) ([5]; day 10): 5.6%
content (%) ([5]; day 10): 97.2%
LD50 at 14 days ([6]; read-out: LD50): 4310 mg/kg
LD50 at 14 days [6, 12]: 2830 to 5440 mg/kg
urea nitrogen ([7]; BEAGLE dogs, 5 mg/kg once per day): 17.1 ± 1.32 mmol/L
urea nitrogen ([7]; BEAGLE dogs, 15 mg/kg once per day): 14.2 ± 1.20 mmol/L
urea nitrogen ([7]; BEAGLE dogs, 45 mg/kg once per day): 15.7 ± 1.08 mmol/L
hematological, blood and urine biochemical parameters versus blank control group, in words ([7]; BEAGLE dogs, 5, 15 and 45 mg/kg once per day): no significant differences
content (%) ([8]; day 0): 99.1%
content (%) ([8]; day 5): 98.6%
content (%) ([8]; day 10): 98.4%

CC(C)(C)C(=O)OCOP(=O)(COCCn1cnc2c(N)ncnc21)OCOC(=O)C(C)(C)C [Adefovir Dipivoxil]
DHBV-DNA level, First week ([9]; 15 mg/ml group): 85 ± 7
DHBV-DNA level, Fourth week ([9]; 15 mg/ml group): 33 ± 6
DHBV-DNA level, Second week ([9]; 15 mg/ml group): 70 ± 6
DHBV-DNA level, Third week ([9]; 15 mg/ml group): 55 ± 7
levels of serum carnine and urea nitrogen, in words [7, 13]: significantly higher
urea nitrogen [7, 13]: 24.7 ± 1.35 mmol/L
adverse reaction and renal dysfunction ([10]; 50 mg/day and 30 mg/day): higher incidence
nephrotoxicity in clinical trials ([10]; recent clinical trials): observed

C[C@H](Cn1cnc2c(N)ncnc21)OCP(=O)(OCOC(=O)C(C)(C)C)OCOC(=O)C(C)(C)C.O=C(O)/C=C/C(=O)O [TD fumarate]
DHBV-DNA level, First week ([9]; 5 mg/ml group): 92 ± 7
DHBV-DNA level, Fourth week ([9]; 5 mg/ml group): 40 ± 5
DHBV-DNA level, Second week ([9]; 5 mg/ml group): 71 ± 5
DHBV-DNA level, Third week ([9]; 5 mg/ml group): 50 ± 9
DHBV-DNA level, First week ([9]; 15 mg/ml group): 78 ± 9
DHBV-DNA level, Fourth week ([9]; 15 mg/ml group): 25 ± 7
DHBV-DNA level, Second week ([9]; 15 mg/ml group): 59 ± 8
DHBV-DNA level, Third week ([9]; 15 mg/ml group): 39 ± 7
DHBV-DNA level, First week ([9]; 45 mg/ml group): 65 ± 6
DHBV-DNA level, Fourth week ([9]; 45 mg/ml group): 16 ± 8
DHBV-DNA level, Second week ([9]; 45 mg/ml group): 43 ± 5
DHBV-DNA level, Third week ([9]; 45 mg/ml group): 25 ± 10
content (%) ([1]; day 0): 99.2%
content (%) ([1]; day 5): 99.2%
content (%) ([1]; day 10): 99.1%
content (%) ([2]; end of month 1): 99.0%
content (%) ([2]; end of month 2): 98.7%
content (%) ([2]; end of month 3): 98.5%
content (%) ([2]; month 0): 99.3%
stability, overall conclusion in words [3]: good solubility and stabilities
blood concentration ([11]; 10 min): 730 ng/mL
blood concentration ([11]; 30 min): 1440 ng/mL
blood concentration ([11]; 45 min): 1770 ng/mL
blood concentration ([11]; 60 min): 2520 ng/mL
blood concentration ([11]; 90 min): 1340 ng/mL
blood concentration ([11]; 120 min): 1030 ng/mL
blood concentration ([11]; 180 min): 940 ng/mL
blood concentration ([11]; 240 min): 730 ng/mL
blood concentration ([11]; 360 min): 550 ng/mL
blood concentration ([11]; 480 min): 340 ng/mL
solubility conclusion, 0.1N HCl [4]: soluble
solubility conclusion, 0.1N NaOH [4]: soluble
solubility conclusion, anhydrous ethanol [4]: freely soluble
solubility conclusion, methanol [4]: freely
amount of solvent (ml), 0.1N HCl [4]: 18.5 mL
amount of solvent (ml), 0.1N NaOH [4]: 65 mL
amount of solvent (ml), anhydrous ethanol [4]: 15.5 mL
amount of solvent (ml), methanol [4]: 7.4 mL
amount of solvent (ml), water ([4]; water): 120 mL
solubility conclusion, water ([4]; water): soluble
water solubility compared with other solid TD forms, in words ([4]; water): better water solubility
content (%) ([5]; day 0): 99.2%
Weight gain after moisture absorption (%) ([5]; day 5): 0%
content (%) ([5]; day 5): 99.1%
Weight gain after moisture absorption (%) ([5]; day 10): 0%
content (%) ([5]; day 10): 99.1%
LD50 at 14 days ([6]; read-out: LD50): 6050 mg/kg
LD50 at 14 days [6, 12]: 4500 to 7870 mg/kg
content (%) ([8]; day 0): 99.5%
content (%) ([8]; day 5): 99.5%
content (%) ([8]; day 10): 99.4%
